For seven compounds, Emax results are on record in patent US12281149B2, “Modulators of G-protein coupled receptors” (priority 2021, dated 2025).

The term Emax denotes the size of the effect at its maximum, as opposed to the concentration needed.

*1 amine or outer side, *2 acyl side, *3 side chain or, on linkers, in order; H or OH if unused. Where a SMILES comes first, the peptide text is derived from it. Side-chain parts run from the residue outwards. [ ]: non-standard residue; d: D form. The star is where a group is joined. Isobutyryl(2-(3-CN-5-F-Ph)) = CC(C)(C(=O)*)c1cc(F)cc(C#N)c1; C20 diacid = O=C(O)CCCCCCCCCCCCCCCCCCC(=O)*; αMePhe(2-F) = C[C@](N)(Cc1ccccc1F)C(=O)O; γGlu = O=C(O)[C@H](CCC(=O)[*:2])N[*:1]; 2Thenoyl(5-Cl) = O=C(c1ccc(Cl)s1)*; X40 = CC(C)(C(=O)*)n1cc(Cl)cn1; X60 = O=C(C1(c2cccnc2)CCCC1)*; Ac4c = NC1(C(=O)O)CCC1; AEEA = NCCOCCOCC(=O)O; Aib = CC(C)(N)C(=O)O; GABA = NCCCC(=O)O; βAla = NCCC(=O)O

One assay concerns the target GLP-1 receptor (Homo sapiens, UniProt P43220). The assay is described as follows: HitHunter cAMP assay, GLP-1 receptor. Type of assay: cell-based. The note with it: CHO cells, cAMP; normalized to maximum signal from GLP-1 (high) and DMSO (low); read-out: Emax GLP-1R. (cAMP levels reflect the balance of adenylyl cyclase and phosphodiesterase activity.)
For the next assay, the target named is T1, GIP receptor (Homo sapiens, UniProt P48546).
T1 sequence (P48546 22-466): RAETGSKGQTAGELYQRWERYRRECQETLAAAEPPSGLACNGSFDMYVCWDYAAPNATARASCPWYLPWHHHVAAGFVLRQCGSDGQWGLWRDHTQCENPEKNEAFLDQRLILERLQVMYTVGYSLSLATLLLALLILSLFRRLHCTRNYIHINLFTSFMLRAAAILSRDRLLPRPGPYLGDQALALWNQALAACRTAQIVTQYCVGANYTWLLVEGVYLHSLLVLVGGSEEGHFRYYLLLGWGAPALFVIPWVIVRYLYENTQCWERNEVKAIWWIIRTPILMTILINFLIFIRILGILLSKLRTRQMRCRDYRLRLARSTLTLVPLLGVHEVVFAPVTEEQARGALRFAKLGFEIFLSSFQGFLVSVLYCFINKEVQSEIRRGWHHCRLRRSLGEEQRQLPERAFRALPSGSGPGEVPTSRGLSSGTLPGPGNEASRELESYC
The experiment in a line: HitHunter cAMP assay, GIP receptor. Type of assay: cell-based. The note with it: CHO cells, cAMP; normalized to maximum signal from GIP (high) and DMSO (low); read-out: Emax GIP-1R.

Sequence of GLP-1 receptor (P43220 24-463): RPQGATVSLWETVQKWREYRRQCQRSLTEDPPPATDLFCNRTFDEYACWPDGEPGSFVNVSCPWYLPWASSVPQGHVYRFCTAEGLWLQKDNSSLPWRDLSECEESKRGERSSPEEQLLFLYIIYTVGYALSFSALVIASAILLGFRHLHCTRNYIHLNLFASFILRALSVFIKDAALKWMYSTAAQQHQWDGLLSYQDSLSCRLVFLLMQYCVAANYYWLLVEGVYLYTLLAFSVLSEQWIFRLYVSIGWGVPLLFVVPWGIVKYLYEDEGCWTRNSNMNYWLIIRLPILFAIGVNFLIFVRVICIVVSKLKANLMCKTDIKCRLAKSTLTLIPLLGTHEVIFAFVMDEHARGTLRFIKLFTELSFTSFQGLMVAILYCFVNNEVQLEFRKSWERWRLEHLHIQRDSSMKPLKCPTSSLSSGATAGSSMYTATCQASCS

With `CC[C@H](C)[C@H](NC(=O)[C@H](CC(C)C)NC(=O)[C@H](Cc1c[nH]c2ccccc12)NC(=O)[C@H](CCC(N)=O)NC(=O)[C@@H](NC(=O)[C@H](Cc1ccccc1)NC(=O)[C@H](C)NC(=O)[C@H](CCCCNC(=O)COCCOCCNC(=O)COCCOCCNC(=O)CC[C@H](NC(=O)CCCCCCCCCCCCCCCCCCC(=O)O)C(=O)O)NC(=O)[C@H](CCC(N)=O)NC(=O)[C@H](C)NC(=O)[C@@H](NC(=O)[C@H](CCCCN)NC(=O)[C@H](CC(=O)O)NC(=O)[C@H](CC(C)C)NC(=O)C(C)(C)NC(=O)[C@@H](NC(=O)[C@H](CO)NC(=O)[C@H](Cc1ccc(O)cc1)NC(=O)[C@H](CC(=O)O)NC(=O)[C@H](CO)NC(=O)[C@@H](NC(=O)[C@](C)(Cc1ccccc1F)NC(=O)[C@@H](NC(=O)CNC(=O)[C@H](CCC(=O)O)NC(=O)CCNC(=O)C1(c2cccnc2)CCCC1)[C@@H](C)O)[C@@H](C)O)[C@@H](C)CC)[C@@H](C)CC)C(C)C)C(=O)N[C@@H](C)C(=O)NCC(N)=O` [Compound 226] ({X60-βAla}-EGT[αMePhe(2-F)]TSDYSI[Aib]LDKIAQK([AEEA-AEEA-γGlu-C20 diacid])AFVQWLIAG-NH2; N-terminus and C-terminus assumed), the Emax on GLP-1 receptor was determined as 104%; on GIP receptor, 102%.
Taken in the same sequence, the figures for `CC[C@H](C)[C@H](NC(=O)[C@H](CC(C)C)NC(=O)[C@H](Cc1c[nH]c2ccccc12)NC(=O)[C@H](CCC(N)=O)NC(=O)[C@@H](NC(=O)[C@H](Cc1ccccc1)NC(=O)[C@H](C)NC(=O)[C@H](CCCCNC(=O)COCCOCCNC(=O)COCCOCCNC(=O)CC[C@H](NC(=O)CCCCCCCCCCCCCCCCCCC(=O)O)C(=O)O)NC(=O)[C@H](CCC(N)=O)NC(=O)[C@H](C)NC(=O)[C@@H](NC(=O)[C@H](CCCCN)NC(=O)[C@H](CC(=O)O)NC(=O)[C@H](CC(C)C)NC(=O)C(C)(C)NC(=O)[C@@H](NC(=O)[C@H](CO)NC(=O)[C@H](Cc1ccc(O)cc1)NC(=O)[C@H](CC(=O)O)NC(=O)[C@H](CO)NC(=O)[C@@H](NC(=O)[C@H](Cc1ccccc1)NC(=O)[C@@H](NC(=O)CNC(=O)[C@H](CCC(=O)O)NC(=O)CCNC(=O)C1(c2cccnc2)CCCC1)[C@@H](C)O)[C@@H](C)O)[C@@H](C)CC)[C@@H](C)CC)C(C)C)C(=O)N[C@@H](C)C(=O)NCC(N)=O` [Compound 227] ({X60-βAla}-EGTFTSDYSI[Aib]LDKIAQK([AEEA-AEEA-γGlu-C20 diacid])AFVQWLIAG-NH2; N-terminus and C-terminus assumed) were 102% and 112%.
Turning to `CC[C@H](C)[C@H](NC(=O)[C@H](CC(C)C)NC(=O)[C@H](Cc1c[nH]c2ccccc12)NC(=O)[C@H](CCC(N)=O)NC(=O)[C@@H](NC(=O)[C@H](Cc1ccccc1)NC(=O)[C@H](C)NC(=O)[C@H](CCCCNC(=O)COCCOCCNC(=O)COCCOCCNC(=O)CC[C@H](NC(=O)CCCCCCCCCCCCCCCCCCC(=O)O)C(=O)O)NC(=O)[C@H](CCC(N)=O)NC(=O)[C@H](C)NC(=O)[C@@H](NC(=O)[C@H](CCCCN)NC(=O)[C@H](CC(=O)O)NC(=O)[C@H](CC(C)C)NC(=O)C(C)(C)NC(=O)[C@@H](NC(=O)[C@H](CO)NC(=O)[C@H](Cc1ccc(O)cc1)NC(=O)[C@H](CC(=O)O)NC(=O)[C@H](CO)NC(=O)[C@@H](NC(=O)[C@](C)(Cc1ccccc1F)NC(=O)[C@@H](NC(=O)CNC(=O)[C@H](CCC(=O)O)NC(=O)CCNC(=O)C(C)(C)c1cc(F)cc(C#N)c1)[C@@H](C)O)[C@@H](C)O)[C@@H](C)CC)[C@@H](C)CC)C(C)C)C(=O)N[C@@H](C)C(=O)NCC(N)=O` [Compound 228] ({Isobutyryl(2-(3-CN-5-F-Ph))-βAla}-EGT[αMePhe(2-F)]TSDYSI[Aib]LDKIAQK([AEEA-AEEA-γGlu-C20 diacid])AFVQWLIAG-NH2; N-terminus and C-terminus assumed), the Emax amounted to 100% at GLP-1 receptor and 105% at GIP receptor.
On to `CC[C@H](C)[C@H](NC(=O)[C@H](CC(C)C)NC(=O)[C@H](Cc1c[nH]c2ccccc12)NC(=O)[C@H](CCC(N)=O)NC(=O)[C@@H](NC(=O)[C@H](Cc1ccccc1)NC(=O)[C@H](C)NC(=O)[C@H](CCCCNC(=O)COCCOCCNC(=O)COCCOCCNC(=O)CC[C@H](NC(=O)CCCCCCCCCCCCCCCCCCC(=O)O)C(=O)O)NC(=O)[C@H](CCC(N)=O)NC(=O)[C@H](C)NC(=O)[C@@H](NC(=O)[C@H](CCCCN)NC(=O)[C@H](CC(=O)O)NC(=O)[C@H](CC(C)C)NC(=O)C(C)(C)NC(=O)[C@@H](NC(=O)[C@H](CO)NC(=O)[C@H](Cc1ccc(O)cc1)NC(=O)[C@H](CC(=O)O)NC(=O)[C@H](CO)NC(=O)[C@@H](NC(=O)[C@H](Cc1ccccc1)NC(=O)[C@@H](NC(=O)CNC(=O)[C@H](CCC(=O)O)NC(=O)CCNC(=O)C(C)(C)c1cc(F)cc(C#N)c1)[C@@H](C)O)[C@@H](C)O)[C@@H](C)CC)[C@@H](C)CC)C(C)C)C(=O)N[C@@H](C)C(=O)NCC(N)=O` [Compound 229] ({Isobutyryl(2-(3-CN-5-F-Ph))-βAla}-EGTFTSDYSI[Aib]LDKIAQK([AEEA-AEEA-γGlu-C20 diacid])AFVQWLIAG-NH2; N-terminus and C-terminus assumed), for which the Emax was 102% at GLP-1 receptor and 107% at GIP receptor.
Regarding `CC[C@H](C)[C@H](NC(=O)[C@H](CC(C)C)NC(=O)[C@H](Cc1c[nH]c2ccccc12)NC(=O)[C@H](CCC(N)=O)NC(=O)[C@@H](NC(=O)[C@H](Cc1ccccc1)NC(=O)[C@H](C)NC(=O)[C@H](CCCCNC(=O)COCCOCCNC(=O)COCCOCCNC(=O)CC[C@H](NC(=O)CCCCCCCCCCCCCCCCCCC(=O)O)C(=O)O)NC(=O)[C@H](CCC(N)=O)NC(=O)[C@H](C)NC(=O)[C@@H](NC(=O)[C@H](CCCNC(=N)N)NC(=O)[C@H](CC(=O)O)NC(=O)[C@H](CC(C)C)NC(=O)C(C)(C)NC(=O)[C@@H](NC(=O)[C@H](CO)NC(=O)[C@H](Cc1ccc(O)cc1)NC(=O)[C@H](CC(=O)O)NC(=O)[C@H](CO)NC(=O)[C@@H](NC(=O)[C@H](Cc1ccccc1)NC(=O)[C@@H](NC(=O)CNC(=O)[C@H](CCC(=O)O)NC(=O)CCNC(=O)C1(c2cccnc2)CCCC1)[C@@H](C)O)[C@@H](C)O)[C@@H](C)CC)[C@@H](C)CC)C(C)C)C(=O)N[C@@H](C)C(=O)NCC(=O)NCC(=O)N1CCC[C@H]1C(=O)N[C@@H](CO)C(=O)N[C@@H](CO)C(=O)NCC(=O)N[C@@H](C)C(=O)N1CCC[C@H]1C(=O)N1CCC[C@H]1C(=O)N1CCC[C@H]1C(=O)N[C@@H](CO)C(N)=O` [Compound 243] ({X60-βAla}-EGTFTSDYSI[Aib]LDRIAQK([AEEA-AEEA-γGlu-C20 diacid])AFVQWLIAGGPSSGAPPPS-NH2; C-terminus assumed), the values for the Emax on GLP-1 receptor and at GIP receptor were 109% and 110%, respectively.
Taken in the same sequence, the figures for `CC[C@H](C)[C@H](NC(=O)[C@H](CC(C)C)NC(=O)[C@H](Cc1c[nH]c2ccccc12)NC(=O)[C@H](CCC(N)=O)NC(=O)[C@@H](NC(=O)[C@H](Cc1ccccc1)NC(=O)[C@H](C)NC(=O)[C@H](CCCCNC(=O)COCCOCCNC(=O)COCCOCCNC(=O)CC[C@H](NC(=O)CCCCCCCCCCCCCCCCCCC(=O)O)C(=O)O)NC(=O)[C@H](CCC(N)=O)NC(=O)[C@H](C)NC(=O)[C@@H](NC(=O)[C@H](CCCCN)NC(=O)[C@H](CC(=O)O)NC(=O)[C@H](CC(C)C)NC(=O)C(C)(C)NC(=O)[C@@H](NC(=O)[C@H](CO)NC(=O)[C@H](Cc1ccc(O)cc1)NC(=O)[C@H](CC(=O)O)NC(=O)[C@H](CO)NC(=O)[C@@H](NC(=O)[C@H](Cc1ccccc1)NC(=O)[C@@H](NC(=O)CNC(=O)[C@H](CCC(=O)O)NC(=O)CCCNC(=O)C1(NC(=O)c2ccc(Cl)s2)CCC1)[C@@H](C)O)[C@@H](C)O)[C@@H](C)CC)[C@@H](C)CC)C(C)C)C(=O)N[C@@H](C)C(=O)NCC(=O)NCC(=O)N1CCC[C@H]1C(=O)N[C@@H](CO)C(=O)N[C@@H](CO)C(=O)NCC(=O)N[C@@H](C)C(=O)N1CCC[C@H]1C(=O)N1CCC[C@H]1C(=O)N1CCC[C@H]1C(=O)N[C@@H](CO)C(N)=O` [Compound 244] ({2Thenoyl(5-Cl)}-[Ac4c][GABA]EGTFTSDYSI[Aib]LDKIAQK([AEEA-AEEA-γGlu-C20 diacid])AFVQWLIAGGPSSGAPPPS-NH2; C-terminus assumed) were 109% and 120%.
With `CC[C@H](C)[C@H](NC(=O)[C@H](CC(C)C)NC(=O)[C@H](Cc1c[nH]c2ccccc12)NC(=O)[C@H](CCC(N)=O)NC(=O)[C@@H](NC(=O)[C@H](Cc1ccccc1)NC(=O)[C@H](C)NC(=O)[C@H](CCCCNC(=O)COCCOCCNC(=O)COCCOCCNC(=O)CC[C@H](NC(=O)CCCCCCCCCCCCCCCCCCC(=O)O)C(=O)O)NC(=O)[C@H](CCC(N)=O)NC(=O)[C@H](C)NC(=O)[C@@H](NC(=O)[C@H](CCCCN)NC(=O)[C@H](CC(=O)O)NC(=O)[C@H](CC(C)C)NC(=O)C(C)(C)NC(=O)[C@@H](NC(=O)[C@H](CO)NC(=O)[C@H](Cc1ccc(O)cc1)NC(=O)[C@H](CC(=O)O)NC(=O)[C@H](CO)NC(=O)[C@@H](NC(=O)[C@H](Cc1ccccc1)NC(=O)[C@@H](NC(=O)CNC(=O)[C@H](CCC(=O)O)NC(=O)CCNC(=O)C(C)(C)n1cc(Cl)cn1)[C@@H](C)O)[C@@H](C)O)[C@@H](C)CC)[C@@H](C)CC)C(C)C)C(=O)N[C@@H](C)C(=O)NCC(=O)NCC(=O)N1CCC[C@H]1C(=O)N[C@@H](CO)C(=O)N[C@@H](CO)C(=O)NCC(=O)N[C@@H](C)C(=O)N1CCC[C@H]1C(=O)N1CCC[C@H]1C(=O)N1CCC[C@H]1C(=O)N[C@@H](CO)C(N)=O` [Compound 247] ({X40-βAla}-EGTFTSDYSI[Aib]LDKIAQK([AEEA-AEEA-γGlu-C20 diacid])AFVQWLIAGGPSSGAPPPS-NH2; C-terminus assumed), the maximal response (Emax) on GLP-1 receptor worked out at 101%; at GIP receptor, 105%.
